Reference: PubChem BioAssay AID1963437 (Molecular Pharmacology Branch, DTP, NCI, 2024)
pIC50: −log10 of the molar value. “And” between values parts separate entries of the source, which are not always exact repeats. Equal values may be shown once.

Test system: OVCAR-8 complex spheroid, growth inhibition
Assay: Anticancer human tumor OVCAR-8 cell line growth inhibition [Asc];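 also: spheroids exposed to agents for 7 days before readout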;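 as to viability, T/C: percent viability relative to DMSO vehicle wells taken as 100%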
Settings: for viability, T/C: stronger effect = lower value
Protocol: Multicellular complex tumor spheroid response to apoptosis pathway targeting inhibitors Alrizomadlin, Pelcitoclax, and Dasminapant in combination with a variety of drugs and investigational agents in selected tumor cell lines
The MDM2 inhibitor alrizomadlin, the Bcl-2/Bcl-xL inhibitor pelcitoclax, and the IAPs inhibitor dasminapant were evaluated both individually and in combination with standard of care and investigational anticancer small molecules within a complex spheroid model of solid tumors. . Complex spheroids include a stromal component modeled by human endothelial cells (HUVEC) and fibroblasts modeled by human mesenchymal stem cells (MSCs). The concentration ranges selected for each drug and investigational agent were based upon clinically achievable concentrations if the clinical Cmax of the agent was known.
Compounds. The drugs and investigational agents: alrizomadlin (APG-115; NSC831270), pelcitoclax (APG-1252; NSC835773), dasminapant (APG-1387;NSC834197), TAK-243 (NSC785004), copanlisib (NSC809693), olaparib (NSC753686), talazoparib (NSC767125), cobimetinib (NSC 768068), eltanexor (KPT-8602, NSC 794443), abemaciclib (NSC 768073), sotorasib (NSC818433), adagrasib (NSC 831453), MRTX-1133 (NSC 836407), Iadademestat (ORY1001, NSC 806812), and RMC-4630 (NSC839698), were obtained from the NCI Developmental Therapeutics Program Chemical Repository. The FDA-approved anticancer drug set is available from the Developmental Therapeutics Program at https://dtp.cancer.gov/organization/dscb/obtaining/available plates.htm. […] The stock solutions were prepared in dimethyl sulfoxide (DMSO, Sigma-Aldrich, St. Louis, MO, cat. D2650) at 800-fold the tested concentration and stored at -70 degrees C prior to their use. All drugs and investigational agents were tested over a range starting from a high concentration at or near the clinical Cmax and decreasing in half-log increments. If the clinical Cmax for an agent had not been determined, the highest concentration tested was 10 microM.
The patient-derived cancer (PDC) cell lines include five colon adenocarcinomas: 186277-243-T-J2-PDC, 616215-338-R-J1-PDC, 439559-082-T-J2-PDC, 463943-066-T-J2-PDC, and 519858-162-T-J1-PDC; three pancreatic carcinomas: 323965-272-R-J2-PDC, 521955-158-R6-J3-PDC, and 521955-158-R2-J5-PDC; two uterine sarcomas: 327498-152-R-J2-PDC and 993429-296-R-J1-PDC; two rhabdomyosarcomas: 755483-174-R-J1-PDC and 772245-204-R-J1-PDC; two soft tissue sarcomas: 126254-015-R-J1-PDC and 494315-158-R-J1-PDC; two malignant fibrous histiocytomas: 317291-083-R-J1-PDC and 596521-263-R-J1-PDC; two breast carcinomas: 171881-019-R-J1-PDC and 885512-296-R-J2-PDC; and one ovarian carcinoma: 6556581-035-R-J-PDC were obtained from the NCI PDMR, (https://pdmr.cancer.gov). The established cell lines HSSY-2 synovial sarcoma (RRID:CVCL 8719), SYO-1 synovial sarcoma (RRID:CVCL_7146), MPNST malignant peripheral neural sheath tumor were obtained from the Sloan Kettering Institute. The following established cell lines were purchased from the American Type Culture Collection (ATCC, Manassas, VA), Sor the received from the NCI repository:, PANC-1 pancreatic carcinoma (CRL-1469, RRID:CVCL_0480), OVCAR-5 ovarian carcinoma (RRID:CVCL_1628), OVCAR-8 ovarian carcinoma (RRID:CVCL_1629), , MCF-7 breast carcinoma (CRL-12584, RRID:CVCL_0031), MDA-MB-231 breast carcinoma (CRL-12532, RRID:CVCL_0062), NCI-H1876 small cell lung carcinoma (CRL-5902, RRID:CVCL_1503), NCI-H510A small cell lung carcinoma (HTB-184, RRID:CVCL_1565), NCI-H1417 (CRL-5869, RRID:CVCL_1469), and NCI-H196 small cell lung carcinoma (CRL-5823, RRID:CVCL_1509). Dr. Peter Houghton (Greehey Children's Cancer Research Institute, University of Texas Health Science Center, San Antonio, TX) provided Rh-18 rhabdomyosarcoma (RRID:CVCL_1659). Pooled donor human umbilical vein endothelial cells (HUVEC, Lonza, cat. CC-2519) and human mesenchymal stem cells (hMSC, Lonza, cat. PT-2501) were purchased from Lonza (Walkersville, MD).
Cell Culture. […]

[1] = curve of first compound, second compound 0.0316 µM
[2] = curve of first compound, second compound 0.1 µM
[3] = curve of first compound, second compound 0.316 µM
[4] = curve of first compound, second compound 1 µM
[5] = second compound 0.0316 µM, first compound 0.0316 µM
[6] = second compound 0.0316 µM, first compound 0.1 µM
[7] = second compound 0.0316 µM, first compound 0.316 µM
[8] = second compound 0.0316 µM, first compound 1 µM
[9] = second compound 0.0316 µM, first compound 3.16 µM
[10] = second compound 0.0316 µM, first compound 10 µM
[11] = second compound 0.1 µM, first compound 0.0316 µM
[12] = second compound 0.1 µM, first compound 0.1 µM
[13] = second compound 0.1 µM, first compound 0.316 µM
[14] = second compound 0.1 µM, first compound 1 µM
[15] = second compound 0.1 µM, first compound 3.16 µM
[16] = second compound 0.1 µM, first compound 10 µM
[17] = second compound 0.316 µM, first compound 0.0316 µM
[18] = second compound 0.316 µM, first compound 0.1 µM
[19] = second compound 0.316 µM, first compound 0.316 µM
[20] = second compound 0.316 µM, first compound 1 µM
[21] = second compound 0.316 µM, first compound 3.16 µM
[22] = second compound 0.316 µM, first compound 10 µM
[23] = second compound 1 µM, first compound 0.0316 µM
[24] = second compound 1 µM, first compound 0.1 µM
[25] = second compound 1 µM, first compound 0.316 µM
[26] = second compound 1 µM, first compound 1 µM
[27] = second compound 1 µM, first compound 3.16 µM
[28] = second compound 1 µM, first compound 10 µM

## C=C(F)C(=O)N1CCN(c2nc(OCC3CCCN3C)nc3c2CCN(c2cccc4cccc(Cl)c24)C3)CC1CC#N (stereo unspecified) + CNC(C)C(=O)NC1CN(S(=O)(=O)c2cccc(S(=O)(=O)N3CCC4CCC(C(=O)NC(c5ccccc5)c5ccccc5)N4C(=O)C(NC(=O)C(C)NC)C3)c2)CCC2CCC(C(=O)NC(c3ccccc3)c3ccccc3)N2C1=O
Curve of first compound, second compound 0.00316 µM
  pIC50: 5.79
Curve of first compound, second compound 0.01 µM
  pIC50: 5.76
[1]
  pIC50: 5.80
[2]
  pIC50: 6.02
[3]
  pIC50: 6.12
[4]
  pIC50: 6.19
Second compound 0.00316 µM, first compound 0.0316 µM
  viability, T/C: 114%
Second compound 0.00316 µM, first compound 0.1 µM
  viability, T/C: 103%
Second compound 0.00316 µM, first compound 0.316 µM
  viability, T/C: 107%
Second compound 0.00316 µM, first compound 1 µM
  viability, T/C: 83.1%
Second compound 0.00316 µM, first compound 3.16 µM
  viability, T/C: 4.81%
Second compound 0.00316 µM, first compound 10 µM
  viability, T/C: 0.78%
Second compound 0.01 µM, first compound 0.0316 µM
  viability, T/C: 98.7%
Second compound 0.01 µM, first compound 0.1 µM
  viability, T/C: 94.6%
Second compound 0.01 µM, first compound 0.316 µM
  viability, T/C: 96%
Second compound 0.01 µM, first compound 1 µM
  viability, T/C: 91.2%
Second compound 0.01 µM, first compound 3.16 µM
  viability, T/C: 4.17%
Second compound 0.01 µM, first compound 10 µM
  viability, T/C: 0.22%
[5]
  viability, T/C: 97.8%
[6]
  viability, T/C: 94.1%
[7]
  viability, T/C: 96.1%
[8]
  viability, T/C: 81.9%
[9]
  viability, T/C: 3.55%
[10]
  viability, T/C: 0.26%
[11]
  viability, T/C: 83.1%
[12]
  viability, T/C: 100%
[13]
  viability, T/C: 95.7%
[14]
  viability, T/C: 48.3%
[15]
  viability, T/C: 3.72%
[16]
  viability, T/C: 0.27%
[17]
  viability, T/C: 90%
[18]
  viability, T/C: 89.9%
[19]
  viability, T/C: 106%
[20]
  viability, T/C: 35.4%
[21]
  viability, T/C: 3.15%
[22]
  viability, T/C: 0.66%
[23]
  viability, T/C: 78%
[24]
  viability, T/C: 90.7%
[25]
  viability, T/C: 97.1%
[26]
  viability, T/C: 25.4%
[27]
  viability, T/C: 2.44%
[28]
  viability, T/C: 0.35%

## O=C(c1ccc(F)c(F)c1Nc1ccc(I)cc1F)N1CC(O)([C@@H]2CCCCN2)C1
Compound 0.00316 µM
  viability, T/C: 95.4% and 98.1% and 96.1%
Compound 0.01 µM
  viability, T/C: 122% and 101% and 111%
Compound 0.0316 µM
  viability, T/C: 138% and 165% and 133%
Compound 0.1 µM
  viability, T/C: 153% and 165% and 190%
Compound 0.316 µM
  viability, T/C: 210% and 216% and 228%
Compound 1 µM
  viability, T/C: 107% and 80.8% and 86.8%
Curve of compound
  pIC50: < 6.00

## C#Cc1c(F)ccc2cc(O)cc(-c3ncc4c(N5CC6CCC(C5)N6)nc(OCC56CCCN5CC(F)C6)nc4c3F)c12 (stereo unspecified) + Cc1c(S(C)(=O)=O)c(-c2cc(F)cc(N3CCN(c4ccc(NS(=O)(=O)c5ccc(NC(CCN6CCC(C(=O)OCCCP(=O)(O)O)CC6)CSc6ccccc6)c(S(=O)(=O)C(F)(F)F)c5)cc4)CC3)c2)c(-c2ccc(Cl)cc2)n1C(C)C
[1]
  pIC50: < 5.00
[2]
  pIC50: < 5.00
[3]
  pIC50: < 5.00
[4]
  pIC50: < 5.00
Curve of first compound, second compound 3.16 µM
  pIC50: < 5.00
Curve of first compound, second compound 10 µM
  pIC50: < 5.00
[5]
  viability, T/C: 86.8%
[6]
  viability, T/C: 97.1%
[7]
  viability, T/C: 87.3%
[8]
  viability, T/C: 76.6%
[9]
  viability, T/C: 84.9%
[10]
  viability, T/C: 99.8%
[11]
  viability, T/C: 85.2%
[12]
  viability, T/C: 72.8%
[13]
  viability, T/C: 90.1%
[14]
  viability, T/C: 85.5%
[15]
  viability, T/C: 90.4%
[16]
  viability, T/C: 84.7%
[17]
  viability, T/C: 78.2%
[18]
  viability, T/C: 102%
[19]
  viability, T/C: 95.4%
[20]
  viability, T/C: 105%
[21]
  viability, T/C: 94%
[22]
  viability, T/C: 107%
[23]
  viability, T/C: 95.1%
[24]
  viability, T/C: 79%
[25]
  viability, T/C: 84.6%
[26]
  viability, T/C: 111%
[27]
  viability, T/C: 106%
[28]
  viability, T/C: 116%
Second compound 3.16 µM, first compound 0.0316 µM
  viability, T/C: 85.1%
Second compound 3.16 µM, first compound 0.1 µM
  viability, T/C: 83.2%
Second compound 3.16 µM, first compound 0.316 µM
  viability, T/C: 89.8%
Second compound 3.16 µM, first compound 1 µM
  viability, T/C: 92.4%
Second compound 3.16 µM, first compound 3.16 µM
  viability, T/C: 102%
Second compound 3.16 µM, first compound 10 µM
  viability, T/C: 108%
Second compound 10 µM, first compound 0.0316 µM
  viability, T/C: 91.5%
Second compound 10 µM, first compound 0.1 µM
  viability, T/C: 92.2%
Second compound 10 µM, first compound 0.316 µM
  viability, T/C: 81.1%
Second compound 10 µM, first compound 1 µM
  viability, T/C: 113%
Second compound 10 µM, first compound 3.16 µM
  viability, T/C: 94.2%
Second compound 10 µM, first compound 10 µM
  viability, T/C: 122%
